The target in assay [1] is T1, Acetylcholinesterase (Homo sapiens, UniProt P22303).
Description: Competitive inhibition constant for Acetylcholinesterase
The target of assay [2] is T1, Acetylcholinesterase. The source holds these as a separate data set.
Description: Inhibition of Acetylcholinesterase
In a further assay the target is Cholinesterase (Homo sapiens, UniProt P06276).
Chain of Cholinesterase (P06276 whole entry): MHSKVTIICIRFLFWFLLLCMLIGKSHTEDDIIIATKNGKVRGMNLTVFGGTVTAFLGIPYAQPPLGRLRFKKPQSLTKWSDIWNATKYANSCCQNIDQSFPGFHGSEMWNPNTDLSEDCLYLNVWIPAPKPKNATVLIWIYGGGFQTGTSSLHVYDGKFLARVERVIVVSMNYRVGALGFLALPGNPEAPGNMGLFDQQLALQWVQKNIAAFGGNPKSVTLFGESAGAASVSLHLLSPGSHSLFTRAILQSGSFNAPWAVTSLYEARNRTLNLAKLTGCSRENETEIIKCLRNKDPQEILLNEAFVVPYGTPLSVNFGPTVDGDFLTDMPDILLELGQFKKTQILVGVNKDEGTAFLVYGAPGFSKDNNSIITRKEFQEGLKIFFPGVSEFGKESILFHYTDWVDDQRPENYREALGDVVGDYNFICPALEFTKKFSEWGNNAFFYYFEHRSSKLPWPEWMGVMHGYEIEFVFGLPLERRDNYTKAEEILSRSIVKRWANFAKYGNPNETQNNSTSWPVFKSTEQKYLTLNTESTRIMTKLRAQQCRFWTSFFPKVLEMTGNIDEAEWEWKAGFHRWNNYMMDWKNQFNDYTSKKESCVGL

T1 sequence (P22303 whole entry): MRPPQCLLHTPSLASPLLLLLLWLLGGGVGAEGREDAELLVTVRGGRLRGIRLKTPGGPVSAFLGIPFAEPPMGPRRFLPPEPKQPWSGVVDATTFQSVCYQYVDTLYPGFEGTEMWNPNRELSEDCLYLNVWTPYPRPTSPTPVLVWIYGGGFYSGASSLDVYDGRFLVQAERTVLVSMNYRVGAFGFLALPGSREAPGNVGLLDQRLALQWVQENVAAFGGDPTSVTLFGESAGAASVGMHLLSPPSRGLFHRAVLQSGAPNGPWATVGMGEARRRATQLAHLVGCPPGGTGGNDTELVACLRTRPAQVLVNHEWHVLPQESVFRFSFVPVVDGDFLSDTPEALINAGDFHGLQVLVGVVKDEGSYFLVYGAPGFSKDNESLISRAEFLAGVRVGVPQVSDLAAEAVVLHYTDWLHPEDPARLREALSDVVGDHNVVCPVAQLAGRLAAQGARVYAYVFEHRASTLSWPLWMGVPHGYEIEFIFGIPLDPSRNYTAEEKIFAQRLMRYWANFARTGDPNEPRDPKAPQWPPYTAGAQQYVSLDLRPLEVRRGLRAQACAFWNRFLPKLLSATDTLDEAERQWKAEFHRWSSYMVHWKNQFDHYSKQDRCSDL

One may read the Ki as the equilibrium dissociation constant of an inhibitor or competing ligand from its target. A lower Ki goes with a stronger hold on the target. As usually defined, the IC50 is the concentration that inhibits the measured activity by half. Low readings indicate greater potency in that assay, high ones weaker potency in that assay. As to `Nc1ccc2c(c1)c(-c1ccccc1)[n+](CCCNCCCNCCCNc1c3c(nc4ccccc14)CCCC3)c1cc(N)ccc21`, the affinity on Acetylcholinesterase [1], expressed as Ki, was 1.49 nM. In addition, the IC50 against Acetylcholinesterase [2] came to 1.55 nM; on Cholinesterase, 63.7 nM.
The compound `COc1ccccc1CN(C)CCCCCC(=O)N(C)CCCCCCCCN(C)C(=O)CCCCCN(C)Cc1ccccc1OC` [CAPROCTAMINE] displayed an IC50 against Cholinesterase of 11600 nM.
Take `COc1ccccc1CN(C)CCCN(C)CCCNCCC[n+]1c(-c2ccccc2)c2cc(N)ccc2c2ccc(N)cc21`: on Acetylcholinesterase [1], the Ki is 894 nM. For the same compound, the IC50 at Acetylcholinesterase [2] was determined as 952 nM; against Cholinesterase, 2190 nM.

The values are drawn from ChEMBL document CHEMBL1145289, “Propidium-based polyamine ligands as potent inhibitors of acetylcholinesterase and acetylcholinesterase-induced amyloid-beta aggregation” (J Med Chem, 2005).
